# According to US7196110B2, “N-substituted tricyclic 3-aminopyrazoles as inhibitors for the treatment of cell proliferative disorders” (Janssen Phamaceutica N.V., priority 2002, dated 2007):
# Like-named read-outs stand apart in the source and are kept apart here.
# How the values were obtained:
# [1] = target: T1, PDGF-receptor beta enzyme comprising the tyrosine kinase domain (Homo sapiens, UniProt P09619); experiment: Inhibition of PDGF-receptor kinase activity (cell-free, PLC1 peptide, 33P Flashplate); assay type: biochemical; details: for inhibition at 10 µM: compound at 10 uM, read-out: Percent Inhibition @ 10 uM
# T1 construct: from amino acid 545 to 1106 of GenBank Access NO: AAA36427
# T1 sequence (P09619 545-1106): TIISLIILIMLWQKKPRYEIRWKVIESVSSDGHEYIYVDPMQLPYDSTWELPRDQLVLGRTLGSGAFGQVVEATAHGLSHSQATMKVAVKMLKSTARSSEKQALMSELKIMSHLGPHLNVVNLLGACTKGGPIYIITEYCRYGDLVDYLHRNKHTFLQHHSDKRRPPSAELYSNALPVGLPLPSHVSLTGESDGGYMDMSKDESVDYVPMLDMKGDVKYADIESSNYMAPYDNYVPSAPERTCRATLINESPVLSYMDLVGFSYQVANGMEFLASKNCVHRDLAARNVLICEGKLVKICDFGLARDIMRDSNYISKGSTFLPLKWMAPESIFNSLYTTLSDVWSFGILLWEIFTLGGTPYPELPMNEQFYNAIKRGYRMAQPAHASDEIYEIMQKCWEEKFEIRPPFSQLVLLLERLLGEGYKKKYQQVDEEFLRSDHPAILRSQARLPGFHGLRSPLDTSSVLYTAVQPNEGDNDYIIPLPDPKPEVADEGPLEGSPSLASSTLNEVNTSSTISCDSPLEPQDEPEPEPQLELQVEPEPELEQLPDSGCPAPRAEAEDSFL
# How it was run: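 The IC50 is the inhibitor level halving kinase activity relative to inhibitor-free wells, measured as 33P captured on a streptavidin-bound biotin-PLC1 peptide. The reaction ran 60 min at 30 °C in pH 8 Tris buffer with 1 mM DTT, 5 μM ATP and the 545–1106 kinase-domain enzyme.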
# c-Abl kinase = c-Abl kinase (Abelson murine leukemia virus, UniProt P00521); experiment: Inhibition of c-Abl kinase activity (cell-free, Abl peptide substrate, 33P Flashplate); assay type: biochemical; details: IC50 for the c-Abl kinase activity
# Sequence of c-Abl kinase (P00521 115-385): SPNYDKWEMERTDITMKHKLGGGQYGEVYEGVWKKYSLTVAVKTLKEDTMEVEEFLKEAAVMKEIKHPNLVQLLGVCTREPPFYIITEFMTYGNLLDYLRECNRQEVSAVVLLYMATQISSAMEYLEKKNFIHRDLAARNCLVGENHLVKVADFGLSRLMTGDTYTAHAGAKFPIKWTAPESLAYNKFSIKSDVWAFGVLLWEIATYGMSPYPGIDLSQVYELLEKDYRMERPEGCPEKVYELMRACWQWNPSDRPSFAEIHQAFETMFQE
# Procedure: The inhibitory activity of compounds within the scope of the invention on c-Abl kinase activity was tested according to the following procedure.
# • 1. 10× Kinase Buffer [500 mM Tris-HCl pH=8, 100 mM MgCl2, 1 mM Na3VO4] • 2. 10 mM DTT [final concentration 1 mM] • 3. 10 mM ATP [final concentration 5 μM] (Gibco, Cat No:18330-019, Carlsbad, Calif.) • 4. ^33P-γ-ATP [NEG-602H; 2000–3000 Ci/mmol], 2 μCuries per well at 10 μCi/μl (0.2 μl/well) • 5. Abl enzyme (New England Biolabs, Cat No. P6050L, Beverly, Mass.) at 100 Units/μl use 10 Units/well (0.1 μl/well) • 6. Enzyme Dilution Buffer [50 mM Tris-HCl pH=8.0, 0.1% BSA] • 7. Wash/Stop Buffer [PBS+100 mM EDTA] • 8. NEN Streptavidin Flashplates (New England Nuclear, Cat No. SMP-103, Boston, Mass.). • 9. Abl Peptide Substrate (Biotin-[…]-amide) at 1 mM in 50 mM Tris-HCL pH=8.0. (Use at 1.0 μM). Procedure
# Reagents were first mixed according to the following regimen:
# The above reaction mixture was dispensed into each well of a Flashplate at 70 μl/well. To test the effect of a compound on Abl kinase activity, the test compound either in a fixed concentration or in serially diluted concentrations in 100% DMSO was added to appropriate wells at 1 μl/well.
# Enzyme Abl was diluted in enzyme dilution buffer as following:
# The kinase reaction was started by adding 30 μl of diluted Abl enzyme solution to each well on the Flashplate containing hot ATP (2 μCi/well) and Abl peptide substrate (at 1 μM final conc.), except wells of column 12 rows E and F, which were used to calculate the plate background. The Flashplate was swirled to mix and was incubated at 30° C. for 60 minutes. Then, the reaction mixture was discarded and the Flashplate was washed 3 times each with 200 μL Wash/Stop Buffer. Subsequently, each well on the Flashplate was filled with 200 μl of Wash/Stop buffer. The amount of ^33P retained in each well was measured using a Packard TopCount after the plate was sealed with a transparent plate sealer.
# In order to test the potency of inhibition of present compounds, an IC50 for an individual compound was measured using the above procedure. As used herein, the IC50 for c-Abl kinase activity refers to the concentration of an inhibitor at which the activity of c-Abl kinase is reduced by one-half as compared with reactions containing no inhibitor.
# [2] = PDGF-R kinase activity, read-out: IC50
# [3] = read-out: IC50 (μM) on PDGF-R kinase activity
smiles,measurement,setting,value
"COc1cc2c(cc1OC)-c1n[nH]c(Nc3ccccc3)c1C2 [Compound 2, (6,7-Dimethoxy-2,4-dihydro-indeno[1,2-c]pyrazol-3-yl)-phenyl-amine]",inhibition at 10 µM,[1]; PDGF-R kinase activity,91%
same,IC50,[1]; [2],0.006 µM
same,IC50,c-Abl kinase,11 nM
COc1cccc2c1Cc1c-2n[nH]c1Nc1ccccc1 [Compound 8],inhibition at 10 µM,[1]; PDGF-R kinase activity,98%
same,IC50,[1]; [2],0.054 µM
same,IC50,c-Abl kinase,694 nM
"COc1cc2c(cc1OC)-c1n[nH]c(Nc3ccc(F)cc3)c1C2 [Compound 13, (6,7-Dimethoxy-2,4-dihydro-indeno[1,2-c]pyrazol-3-yl)-(4-fluoro-phenyl)-amine]",inhibition at 10 µM,[1]; PDGF-R kinase activity,91%
same,IC50,[1]; [2],0.0065 µM
same,IC50,c-Abl kinase,173 nM
"COc1cccc(Nc2[nH]nc3c2Cc2cc(OC)c(OC)cc2-3)c1 [Compound 29, (6,7-Dimethoxy-2,4-dihydro-indeno[1,2-c]pyrazol-3-yl)-(3-methoxy-phenyl)-amine]",inhibition at 10 µM,[1]; PDGF-R kinase activity,99%
same,IC50,c-Abl kinase,5 nM
"COc1cc2c(cc1OC)-c1n[nH]c(Nc3cccc(C)c3)c1C2 [Compound 32, (6,7-Dimethoxy-2,4-dihydro-indeno[1,2-c]pyrazol-3-yl)-m-tolyl-amine]",inhibition at 10 µM,[1]; PDGF-R kinase activity,79%
same,IC50,c-Abl kinase,2 nM
"COc1cc2c(cc1OC)-c1n[nH]c(Nc3cccc(CO)c3)c1C2 [Compound 36, [3-(6,7-Dimethoxy-2,4-dihydro-indeno[1,2-c]pyrazol-3-ylamino)-phenyl]-methanol]",inhibition at 10 µM,[1]; PDGF-R kinase activity,85%
same,IC50,[1]; [2],0.033 µM
same,IC50,c-Abl kinase,64 nM
"COc1cc2c(cc1OC)-c1n[nH]c(Nc3cccc(O)c3)c1C2 [Compound 38, 3-(6,7-Dimethoxy-2,4-dihydro-indeno[1,2-c]pyrazol-3-ylamino)-phenol]",inhibition at 10 µM,[1]; PDGF-R kinase activity,74%
same,IC50,[1]; [2],0.031 µM
same,IC50,c-Abl kinase,2 nM
"COc1cc(Nc2[nH]nc3c2Cc2cc(OC)c(OC)cc2-3)cc(OC)c1 [Compound 41, (6,7-Dimethoxy-2,4-dihydro-indeno[1,2-c]pyrazol-3-yl)-(3,5-dimethoxy-phenyl)-amine]",inhibition at 10 µM,[1]; PDGF-R kinase activity,83%
same,IC50,[1]; [2],0.0336 µM
same,IC50,c-Abl kinase,78 nM
"COc1cc2c(cc1OC)-c1n[nH]c(Nc3cccc(Br)c3)c1C2 [Compound 44, (3-Bromo-phenyl)-(6,7-dimethoxy-2,4-dihydro-indeno[1,2-c]pyrazol-3-yl)-amine]",inhibition at 10 µM,[1]; PDGF-R kinase activity,94%
same,IC50,[1]; [2],0.00054 µM
same,IC50,c-Abl kinase,7 nM
"COc1cc2c(cc1OC)-c1n[nH]c(Nc3cccc(OCc4ccccc4)c3)c1C2 [Compound 54, (3-Benzyloxy-phenyl)-(6,7-dimethoxy-2,4-dihydro-indeno[1,2-c]pyrazol-3-yl)-amine]",inhibition at 10 µM,[1]; PDGF-R kinase activity,76%
same,IC50,[1]; [2],0.0348 µM
same,IC50,c-Abl kinase,971 nM
"CN(C)CCCOc1cccc2c1Cc1c-2n[nH]c1Nc1cccc(F)c1 [Compound 90, [5-(3-Dimethylamino-propoxy)-2,4-dihydro-indeno[1,2-c]pyrazol-3-yl]-(3-fluoro-phenyl)-amine]",inhibition at 10 µM,[1]; PDGF-R kinase activity,97%
same,IC50,[1]; [2],0.0087 µM
same,IC50,c-Abl kinase,10300 nM
"COc1cc2c(cc1OC)-c1n[nH]c(Nc3cccc(C(N)=O)c3)c1C2 [Compound 116, 3-(6,7-Dimethoxy-2,4-dihydro-indeno[1,2-c]pyrazol-3-ylamino)-benzamide]",inhibition at 10 µM,[1]; PDGF-R kinase activity,96%
same,IC50,[1]; [2],0.0053 µM
same,IC50,c-Abl kinase,386 nM
"COc1cccc(Nc2[nH]nc3c2Cc2cc(N)ccc2-3)c1 [Compound 118, N3-(3-Methoxy-phenyl)-2,4-dihydro-indeno[1,2-c]pyrazole-3,6-diamine]",inhibition at 10 µM,[1]; PDGF-R kinase activity,74%
same,IC50,[1]; [2],0.0213 µM
same,IC50,c-Abl kinase,427 nM
"Nc1ccc2c(c1)Cc1c-2n[nH]c1Nc1cccc(Cl)c1 [Compound 119, N3-(3-Chloro-phenyl)-2,4-dihydro-indeno[1,2-c]pyrazole-3,6-diamine]",inhibition at 10 µM,[1]; PDGF-R kinase activity,90%
same,IC50,[1]; [2],0.0198 µM
same,IC50,c-Abl kinase,524 nM
"CN1CCN(c2ccc3c(c2)Cc2c-3n[nH]c2Nc2cccc(Cl)c2)CC1 [Compound 124, (3-Chloro-phenyl)-[6-(4-methyl-piperazin-1-yl)-2,4-dihydro-indeno[1,2-c]pyrazol-3-yl]-amine]",inhibition at 10 µM,[1]; PDGF-R kinase activity,94%
same,IC50,[1]; [2],0.0163 µM
same,IC50,c-Abl kinase,1850 nM
"Clc1cccc(Nc2[nH]nc3c2Cc2cc4c(cc2-3)OCO4)c1 [Compound 128, (3-Chloro-phenyl)-(2,9-dihydro-5,7-dioxa-2,3-diaza-cyclopenta[a]-s-indacen-1-yl)-amine]",inhibition at 10 µM,[1]; PDGF-R kinase activity,88%
same,IC50,[1]; [2],0.0596 µM
same,IC50,c-Abl kinase,313 nM
"CCOc1cc2c(cc1OCC)-c1n[nH]c(Nc3cccc(F)c3)c1C2 [Compound 594, (6,7-Diethoxy-2,4-dihydro-indeno[1,2-c]pyrazol-3-yl)-(3-fluoro-phenyl)-amine]",inhibition at 10 µM,[1]; PDGF-R kinase activity,64%
same,IC50,[1]; [3],0.0156 µM
"CCCCCCCCCCCCCCCNC(=O)n1nc2c(c1Nc1cccc(F)c1)Cc1cc(OC)c(OC)cc1-2 [Compound 598, 3-(3-Fluoro-phenylamino)-6,7-dimethoxy-4H-indeno[1,2-c]pyrazole-2-carboxylic acid pentadecylamide]",inhibition at 10 µM,[1]; PDGF-R kinase activity,0%
same,IC50,[1]; [3],98.4 µM
"COc1cc2c(cc1OC)-c1n[nH]c(Nc3cccc(C(=O)NCCOCCOCCOCCNC(=O)CCCCC4SCC5NC(=O)NC54)c3)c1C2 (stereo not shown) [Compound 601, 3-(6,7-Dimethoxy-2,4-dihydro-indeno[1,2-c]pyrazol-3-ylamino)-N-{2-[2-(2-{2-[5-(2-oxo-hexahydro-thieno[3,4-d]imidazol-6-yl)-pentanoylamino]-ethoxy}-ethoxy)-ethoxy]-ethyl}-benzamide]",inhibition at 10 µM,[1]; PDGF-R kinase activity,89%
same,IC50,[1]; [3],2.29 µM
"COC(=O)Cn1nc2c(c1Nc1cccc(F)c1)Cc1cc(OC)c(OC)cc1-2 [Compound 602, [3-(3-Fluoro-phenylamino)-6,7-dimethoxy-4H-indeno[1,2-c]pyrazol-2-yl]-acetic acid methyl ester]",inhibition at 10 µM,[1]; PDGF-R kinase activity,40%
"COc1cc2c(cc1OC)-c1nn(C(=O)NCCOCCOCCO)c(Nc3cccc(F)c3)c1C2 [Compound 604, 3-(3-Fluoro-phenylamino)-6,7-dimethoxy-4H-indeno[1,2-c]pyrazole-2-carboxylic acid {2-[2-(2-hydroxy-ethoxy)-ethoxy]-ethyl}-amide]",inhibition at 10 µM,[1]; PDGF-R kinase activity,79.5%
same,IC50,[1]; [3],2.13 µM
"COc1cc2c(c3nc(C)oc13)CC1C(Nc3cccc(F)c3)=NN=C21 (stereo not shown) [Compound 605, (3-Fluoro-phenyl)-(4-methoxy-2-methyl-7,9-dihydro-3-oxa-1,6,7-triaza-cyclopenta[b]-as-indacen-8-yl)-amine]",inhibition at 10 µM,[1]; PDGF-R kinase activity,97.5%
same,IC50,[1]; [3],0.0051 µM
"COc1cc2c(c(Cc3ccccc3)c1O)-c1n[nH]c(Nc3cccc(F)c3)c1C2 [Compound 606, 8-Benzyl-3-(3-fluoro-phenylamino)-6-methoxy-2,4-dihydro-indeno[1,2-c]pyrazol-7-ol]",inhibition at 10 µM,[1]; PDGF-R kinase activity,53.5%
"COc1cc2c(cc1O)-c1n[nH]c(Nc3cccc(F)c3)c1C2 [Compound 608, 3-(3-Fluoro-phenylamino)-6-methoxy-2,4-dihydro-indeno[1,2-c]pyrazol-7-ol]",inhibition at 10 µM,[1]; PDGF-R kinase activity,106%
same,IC50,[1]; [3],0.026 µM
COc1cc2c(cc1OC)-c1c(c(Nc3cccc(F)c3)nn1C)C2 [Compound 609],inhibition at 10 µM,[1]; PDGF-R kinase activity,84%
same,IC50,[1]; [3],4.68 µM
"COc1cc2c(cc1OC)-c1nn(C)c(Nc3cccc(F)c3)c1C2 [Compound 610, (6,7-dimethoxy-2-methyl-1,4-dihydro-indeno[1,2-c]pyrazole-3-yl)-(3-fluoro-phenyl)-amine]",inhibition at 10 µM,[1]; PDGF-R kinase activity,51.5%
same,IC50,[1]; [3],9.38 µM
